Assay results published in patent US8124137B2, “Composition for prevention and/or treatment of tumors containing acacia bark derivative” (Mimozax Co., Ltd., priority 2006, dated 2012).

Test system: mouse tumor MM46 breast cancer cells
Test: Tumor growth inhibition test in mice
Format: in vivo
Conditions: Positive Control group: 6.25 mg/kg intraperitoneally on days 7, 11 and 14
Method: The required weighed amounts of Acacia Hot Water Extract No. 1 described in Production Example 2 were dispersed in water at 60° C. to prepare test drinks 1, 2 and 3 containing Acacia Hot Water Extract No. 1 at 7.8 mg/mL, 15.6 mg/mL and 31.3 mg/mL, respectively.
The required weighed amounts of Acacia Hot Water Extract No. 1 described in Production Example 2 were mixed with commercially available feed to prepare test feeds 2 and 3 containing Acacia Hot Water Extract No. 1 at 15.6 mg/g and 31.3 mg/g, respectively.
Female C3H/HeN mice were assigned to a Control 1 group, Test 1 group, Test 2 group, Test 3 group and Positive Control group as shown in the table below.
First, 2×10^6 mouse tumor MM46 breast cancer cells were transplanted subcutaneously into the inguinal region of the mice grouped as indicated above according to the method described in Abe, S. et al., Gann 73, 91-96 (1982) and Ohasi, K. et al., Yakugaku Zasshi 113, 396-399 (1993).
Tap water was given to the Control 1 group while Test Drinks 1 to 3 were given to the Test 1 to Test 3 groups, respectively, as drinking water, starting on the day of tumor transplantation. In addition, tap water was given to the Positive Control group, and this group was also intraperitoneally administered 6.25 mg/kg of lentinan on days 7, 11 and 14 following tumor transplantation.
Consequently, Test Drink 2 and Test Drink 3 were replaced with tap water on day 7 of tumor transplantation. In addition, five mice each of the Test 2 group were reassigned to a Control 2 group and a Test 2a group, while five mice each of the Test 3 group were reassigned to a Control 3 group and a Test 3a group. Animals of the Control 2 group and Control 3 group were continued to be fed the control feed. The Test 2a group and Test 3a group were fed Test Feed 2 and Test Feed 3, respectively, instead of the control feed.
Growth of the tumor transplanted subcutaneously into the inguinal regions of the mice was observed by palpation for 4 weeks every 3 or 4 days, and tumor diameter was also measured. In addition, survival times (days) and body weights were also measured. The tumors were excised and their wet weights were measured following completion of the test.
Furthermore, the Student's t-test was used for statistical testing.

## lentinan
Day 14 after transplantation
  Average tumor diameter: 7.4 ± 6.58 mm
  reduction rate versus Control 1 group (average tumor diameter): 43.5%
Day 28 after transplantation
  Average tumor diameter: 14.0 ± 6.12 mm
  reduction rate versus Control 1 group (average tumor diameter): 41.2%
